Data taken from patent publication US9610294B2, “Methods and compositions for the treatment of fluid accumulation in and/or under the retina” (UNIVERSITE PARIS DESCARTES, priority 2010, dated 2017).
Where two headings read alike, the source gives them in different places.

Tests used:
ENaC-α = ENaC-α expression (real-time PCR, western blot) in rat RMG primary cultures and retinal explants; format: cell-based; conditions: for aldosterone-induced increase in ENaC-α subunit transcripts in presence of antagonist: 10 nM aldosterone plus 1 µM antagonist, 24 hrs
Experimental: (§1) Rat RMG cells were obtained as described (deKozak, Y., Naud, M. C., Bellot, J., Faure, J. P., and Hicks, D. (1994) Differential tumor necrosis factor expression by resident retinal cells from experimental uveitis-susceptible and -resistant rat strains. J Neuroimmunol 55, 1-9). Briefly, rats at postnatal (PN) day 17 (when RMG cells are mature) were sacrificed and eyes enucleated. Intact eyeballs were maintained in DMEM overnight at room temperature in the dark, and then incubated 45 min with 2 mg/ml trypsin/collagenase I at 37° C. The neural retinas were separated from the lens and vitreous, cut into small fragments and plated in Petri dishes containing DMEM supplemented with 10% FCS, 100 units/ml penicillin, 100 µg/ml streptomycin, and 0.2% amphotericin B. Cultures were maintained at 37° C. in a humidified atmosphere containing 5% CO2. After 5 to 6 days, the cultures were washed extensively with medium so that only a strongly adherent flat cell population remained.
(§2) Müller cells were seeded in 6-well tissue culture plates (Becton Dickinson, Le Pont de Claix, France). Rat PN17 RMG cells were maintained in their initial Petri dishes. Sub confluent (80%) cells were incubated in media supplemented with 10% steroid-free (charcoal treated) FCS for 24 hrs. Corticosteroid (Sigma-Aldrich, Saint Quentin Fallavier, France) treatments were then applied respectively for a further 24 hrs: 10 nM aldosterone, 10 nM aldosterone plus 1).IM RU38486 (GR-specific antagonist), 10 nM aldosterone plus 1 µM RU26752 (MR-specific antagonist) or 1 µM dexamethasone. The steroids were previously dissolved in 2% steroid-free FCS media containing 0.1% ethanol. Control cells were treated with 0.1% ethanol in media.
(§3) After enucleation, rat retinas were isolated immediately under aseptic conditions and cut into 4 pieces. They were then transferred onto a Cyclopore 0.2).Im polycarbonate membrane (Whatman, Maidstone, England), and flatmounted with the vitreal side up. The support membranes were placed in 6-well tissue culture plates containing 2 ml DMEM supplemented with 10% steroid-free FCS, 1% penicillin-streptomycin and 0.1% amphotericin B. Explants were treated with corticosteroids as described for cultured cells. Similarly, the dose-dependent effect of aldosterone (0.1-100 nM) was analyzed on retinal explants in separate experiments.
(§4) Total RNA was isolated from the treated RMG cells and retinal explants using RNeasy Mini Kit (Qiagen, Courtaboeuf, France). First-strand cDNA was synthesized after DNase I (Qiagen) treatment using random primers (Invitrogen) and superscript II reverse transcriptase (Invitrogen). Transcript levels of ENaC-a, Kir4.1 and AQP4 were analyzed by real-time PCR performed in 7500 Real-Time PCR System (Applied Biosystems, Foster City, Calif., USA) with either TaqMan® (Applied Biosystems) or SYBR® Green (Invitrogen, Cergy Pontoise, France) detection. The 18S was used as internal control.
(§5) Retinal explants were homogenized in Np40 buffer in the presence of protease inhibitors. The protein concentration was determined by the Bradford method. Equal amounts of protein (12 .ug) were separated on Novex® 4%-12% Tris-Glycine gel (Invitrogen), transferred to nitrocellulose, and the blots were incubated with primary antibodies at 4° C. overnight. The membranes were washed, incubated with horse radish peroxidase conjugated goat anti-rabbit IgG (1:3000, Vector, AbCys, Paris, France) for 1 hr at room temperature, and developed using ECL Plus western blotting detection reagents (GE healthcare, Orsay, France). The j3-actin was used as internal control. The following primary antibodies were used: rabbit anti-alpha ENaC (1:500, Abcam, Cambridge, Mass., USA), rabbit anti-Kir4.1 (1:400, Alomone Labs, Jerusalem, Israel), rabbit anti-AQP4 (1:750, Millipore, St Quentin en Yvelines, France) and rabbit anti-j3-actin (1:1000, Abcam)

AQP4 [1] = experiment: AQP4 mRNA expression in RMG cells (Example 2); format: cell-based
Excerpt: We have performed several experiments.

AQP4 [2] = experiment: AQP4 expression (real-time PCR, western blot) in rat RMG primary cultures and retinal explants; format: cell-based; conditions: for aldosterone induction of AQP4 mRNA in presence of antagonist: 10 nM aldosterone plus 1 µM antagonist, 24 hrs
Experimental: as §1, §2, §3, §4, §5

Kir4.1 = Kir4.1 expression (real-time PCR, western blot) in rat RMG primary cultures and retinal explants; format: cell-based; conditions: for aldosterone-induced Kir4.1 up-regulation in presence of antagonist: 10 nM aldosterone plus 1 µM antagonist, 24 hrs
Experimental: as §1, §2, §3, §4, §5

retina [3] = experiment: Intraocular injection in Brown Norway rats (gain of function mutation in the MR gene): CSCR-like retinal pathology; format: in vivo; conditions: FIGS. 1 and 2
[4] = system: sub retinal and/or intra retinal fluid; experiment: Oral eplerenone in patients with CSCR or chronic diffuse epitheliopathy; format: in vivo, human; conditions: for recurrence: at 6 months
Excerpt: Patients with non-resolutive or chronic diffuse epitheliopathy presenting with macular fluid accumulation have been treated with oral eplerenone, a specific MR antagonist. […] On the contrary, 4 months later and at 1 week before treatment, the amount of fluid had accumulated. […] They have a long history of recurrent CSCR on both eyes. In their left eye (OS), they present a macular edema with sub retinal fluid and retinal cysts. The left eye vision is reduced to 1/10 and the edema is chronic since more than 2 years. They have been treated with eplerenone 25 mg/day for 8 days and then 50 mg/days for 3 month. […] Moreover, vision in the left eye recovered to 6/10. No recurrence was observed on none of the eyes even at 6 months.

retina [5] = experiment: Intravitreal spironolactone in GK diabetic rats: retinal histology; format: in vivo, Goto-Kakizaki (GK) rats
Experimental: Goto-Kakizaki (GK) rats have been used as model for diabetic retinopathy. GK rats (Taconic Europe, Denmark), a Wistar non-obese model of Non-Insulin Dependent type 2 Diabetes were used at different ages of hyperglycemia. Glycemia was measured using Accutrend GC and Accu-check compact equipments (Roche) and plasma glucose >250 mg/dl was considered as diabetic state. […] Controls were selected from age-matched non-diabetic rats and with plasma glucose <150 mg/dl. […] 18 months diabetic rats were treated with intravitreous injections (1 μM) at day 1,3,5 and animals were re tested for ERGs 24 hrs after each injection. 24 hrs after the third injection, animals were sacrificed and the retina were analyzed using semi-thin sections.

retina [6] = experiment: Intravitreal spironolactone in GK diabetic rats: electroretinograms (ERG); format: in vivo, Goto-Kakizaki (GK) rats; conditions: 18 months diabetic GK rats, intravitreous 1 μM at day 1,3,5; 24 hrs after last injection, FIG. 7
Experimental: In 18 months-old GK rats, electroretinogramms were preformed (ERG).
18 months diabetic rats were treated with intravitreous injections (1 μM) at day 1,3,5 and animals were re tested for ERGs 24 hrs after each injection.

[7] = 18 months GK rats, 3 intravitreous injections 1 μM, vs vehicle, FIG. 8
[8] = GK diabetic rats, intraocular, conclusion
[9] = GK rats, 1 μM final in the vitreous, 24 hrs after injection, FIG. 6

CCC[C@@H]1CC2=CC(=O)CC[C@]2(C)[C@H]2CC[C@@]3(C)[C@@H](CC[C@@]34CCC(=O)O4)[C@H]12 [RU26752]
aldosterone-induced increase in ENaC-α subunit transcripts in presence of antagonist (ENaC-α): inhibited
aldosterone-induced ENaC protein in presence of MR antagonist (ENaC-α; western blot, retinal explants): not reduced
aldosterone induction of AQP4 mRNA on co-administration of MR antagonist (AQP4 [1]): completely blocks the induction
aldosterone induction of AQP4 mRNA in presence of antagonist (AQP4 [2]): fully suppressed
aldosterone-induced AQP4 protein in presence of MR antagonist (AQP4 [2]; western blot): blocked
aldosterone-induced Kir4.1 up-regulation in presence of antagonist (Kir4.1): weaker (or no) effect
aldosterone-induced Kir4.1 protein in presence of MR antagonist (Kir4.1; western blot): reduced

CC#C[C@]1(O)CC[C@H]2[C@@H]3CCC4=CC(=O)CCC4=C3[C@@H](c3ccc(N(C)C)cc3)C[C@@]21C [RU38486]
aldosterone-induced increase in ENaC-α subunit transcripts in presence of antagonist (ENaC-α): inhibited
aldosterone induction of AQP4 mRNA in presence of antagonist (AQP4 [2]): reduces somehow
aldosterone-induced Kir4.1 up-regulation in presence of antagonist (Kir4.1): fully efficient to reduce it

C[C@]12C[C@H](O)[C@H]3[C@@H](CCC4=CC(=O)CC[C@@]43C)[C@@H]1CC[C@@H]2C(=O)CO [corticosterone]
retinal pathology after intraocular injection (retina [3]): develop a retinal pathology very close to CSCR

COC(=O)[C@@H]1CC2=CC(=O)CC[C@]2(C)[C@@]23O[C@@H]2C[C@@]2(C)[C@@H](CC[C@@]24CCC(=O)O4)[C@H]13 [eplerenone, Pregn-4-ene-7,21-dicarboxylic acid, 9,11-epoxy-17-hydroxy-3-oxo-,γ-lactone, methyl ester, (7α,11α,17β)]
sub retinal fluid ([4]; FIG. 3 patient, CSCR unresolved for 4 months, 25 mg/day orally for 8 days): striking reduction
recurrence ([4]; FIG. 3 patient, treatment discontinued after 4 weeks): did not show any recurrence
sub retinal fluid ([4]; FIG. 3 patient, then 50 mg/day for 8 days, after 2 weeks of treatment): almost complete resolution
sub retinal fluid ([4]; FIG. 4 patient, chronic CSCR, 25 mg/day for 8 days then 50 mg/day, 15 days after treatment): complete resolution
macular cysts ([4]; FIG. 4 patient, chronic CSCR, 15 days after treatment): total resolution
recurrence ([4]; FIG. 4 patient, both eyes): No recurrence
vision in the left eye ([4]; FIG. 4 patient, reduced to 1/10 before treatment): 6/10
kinetics of efficacy ([4]; patients, oral eplerenone): as early as the first week of use
regression of sub retinal and/or intra retinal fluid ([4]; patients, oral eplerenone, FIGS. 3 and 4): very rapid and efficient regression

CC(=O)S[C@@H]1CC2=CC(=O)CC[C@]2(C)[C@H]2CC[C@@]3(C)[C@@H](CC[C@@]34CCC(=O)O4)[C@H]12 [spironolactone, 17-hydroxy-7α-mercapto-3-oxo-17α-pregn-4-ene-21-carboxylic acid γ-lactone acetate]
edema in inner/outer (IS/OS) segments and outer nuclear layer (ONL) (retina [5]; [7]): decreased
vasodilation in the choriocapillaries (retina [5]; [7]): reduced
formation of outer segments (retina [5]; [8]): improves
retinal edema (retina [5]; [8]): efficiently reduces
fluid accumulation in the outer nuclear layer (photoreceptor layer) (retina [5]; [9]): have decreased
thickness of the outer retina (retina [5]; [9]): decreased
ERG b-wave after treatment compared to before treatment (retina [6]): significantly increased

C[C@]12C=CC(=O)C=C1CC[C@H]1[C@@H]3C[C@@H](O)[C@](O)(C(=O)CO)[C@@]3(C)C[C@H](O)[C@@]12F [triamcinolone]
expression of the water channel AQP4 (AQP4 [1]): reduces the expression of AQP4
expression of the water channel AQP4 (AQP4 [1]; listed as triamcinolone acetonide): same effect as a MR antagonist
